Experimental data as given in PMC12668289 (RSC Chemical Biology, 2025).
Several values for one entry are separate records, joined by “and”; a condition that tells them apart may be missing. Equal values may be shown once.

Experiments:
Fluc [1] = biological target: T1, Fluc (Photinus pyralis, UniProt P08659); settings: with Fluc; cited from earlier work
Pmluc-WT [2] = experiment: Steady-state kinetics of luciferase reactions (luminometer); type: biochemical, Pyrocoelia miyako; settings: for appKm: pH 8.0, 25 °C; for Relative kcat: relative to 2a compound
Protocol: (§1) 1.5 Bioluminescence characterizations
(§2) Reactions of luciferases, including Photinus pyralis luciferase (Fluc), Phrixothrix hirtus luciferase (SLR), Pyrearinus termitilluminans […]
(§3) mM D-LH 2 analogues, 3 mM ATP, 6 mM MgCl2, and 10 µM luciferase in 0.2 ml of 100 mM HEPES-NaOH pH 8.0. The bioluminescence (BL) emission characteristics were recorded using a microplate reader in a BL mode (Thermo Scientific, Varioskan, LUX multimode). […]
BL of the
(§4) The reactions were initiated by mixing 25 µl of premixed solution of luciferases/D-LH 2 analogues with 125 µl of 3 mM ATP and 6 mM MgCl2 in 100 mM HEPES-NaOH (pH 8.0). The light intensity (relative light unit, RLU) during 0-300 sec was then collected to represent the overall luciferase activity which was further used for calculating kinetic parameters from the Michaelis-Menten equation. […]

Eluc [3] = experiment: as above; type: biochemical, Pyrearinus termitilluminans; settings: for appKm: pH 8.0, 25 °C; for Relative kcat: relative to 2a compound
Protocol: as §1, §2, §3
BL of the
as §4

SLR [4] = experiment: BL emission spectra of luciferase-luciferin reactions; type: biochemical, Phrixothrix hirtus; settings: 100 mM HEPES pH 8.0, 25 °C
Protocol: as §1, §2, §3
(§5) sphere-based multichannel spectrometer with a charge-coupled device (CCD) detector. […]

Fluc [5] = biological target: T1, Fluc; experiment: biochemical; type: binding; settings: ITC
Fluc [6] = biological target: T1, Fluc; experiment: Stopped-flow luminometry, single turnover light formation and decay; type: biochemical; settings: Fluc single turnover, 25 °C
Protocol: 1.5 Bioluminescence characterizations […]
One syringe was filled with a solution of 50 µM Fluc, 3 mM ATP, and 6 mM
in both syringes were mixed by a stopped-flow device and measured the light emission at 25 °C in triplicate. […]
2.8 Investigation of bioluminescence kinetics using stopped-flow luminometry
reactions were investigated using a stopped-flow spectrophotometer (employing a light-off mode for detecting the luminescence). One

[7] = Absorption and fluorescence spectra of luciferins; type: physicochemical; settings: 100 mM HEPES pH 8.0, 25 °C
Protocol: 2.6 Spectra of firefly luciferins
spectrophotometer (Agilent technologies, Cary 100 UV Vis, Cary Series UV-Vis Spectrophotometer).
were recorded by a microplate reader (Thermo Scientific, Varioskan, LUX multimode) in fluorescence mode. The reactions of D-LH 2 […]
Supplementary Table S5. […]
[e] ND denotes “not detectable”. […]

Pmluc-WT [8] = experiment: BL emission spectra of luciferase-luciferin reactions; type: biochemical, Pyrocoelia miyako; settings: 100 mM HEPES pH 8.0, 25 °C
Protocol: as §1, §2, §3, §5

Eluc [9] = experiment: as above; type: biochemical, Pyrearinus termitilluminans; settings: 100 mM HEPES pH 8.0, 25 °C
Protocol: as §1, §2, §3, §5

SLR [10] = experiment: Steady-state kinetics of luciferase reactions (luminometer); type: biochemical, Phrixothrix hirtus; settings: for appKm: pH 8.0, 25 °C; for Relative kcat: relative to 2a compound
Protocol: as §1, §2, §3
BL of the
as §4

Pmluc-N230S [11] = experiment: BL emission spectra of luciferase-luciferin reactions; type: biochemical, Pyrocoelia miyako; settings: 100 mM HEPES pH 8.0, 25 °C
Fluc [12] = biological target: T1, Fluc; experiment: as above; type: biochemical; settings: 100 mM HEPES pH 8.0, 25 °C
Protocol: as §1, §2, §3, §5

Fluc [13] = biological target: T1, Fluc; experiment: Steady-state kinetics of luciferase reactions (luminometer); type: biochemical; settings: for appKm: pH 8.0, 25 °C; for Relative kcat: relative to 2a compound
Protocol: as §1, §2, §3
BL of the
as §4

Pmluc-N230S [14] = experiment: as above; type: biochemical, Pyrocoelia miyako; settings: Pmluc-N230S; for appKm: pH 8.0, 25 °C; for Relative kcat: relative to 2a compound
Protocol: as §1, §2, §3
BL of the
as §4

Fluc-ApCPP complex = Fluc-ApCPP complex (Photinus pyralis, UniProt P08659); experiment: biochemical; type: binding; settings: ITC
luciferases = settings: cited from earlier work
[15] = concentration range tested 0-300

T1 sequence (P08659 whole entry): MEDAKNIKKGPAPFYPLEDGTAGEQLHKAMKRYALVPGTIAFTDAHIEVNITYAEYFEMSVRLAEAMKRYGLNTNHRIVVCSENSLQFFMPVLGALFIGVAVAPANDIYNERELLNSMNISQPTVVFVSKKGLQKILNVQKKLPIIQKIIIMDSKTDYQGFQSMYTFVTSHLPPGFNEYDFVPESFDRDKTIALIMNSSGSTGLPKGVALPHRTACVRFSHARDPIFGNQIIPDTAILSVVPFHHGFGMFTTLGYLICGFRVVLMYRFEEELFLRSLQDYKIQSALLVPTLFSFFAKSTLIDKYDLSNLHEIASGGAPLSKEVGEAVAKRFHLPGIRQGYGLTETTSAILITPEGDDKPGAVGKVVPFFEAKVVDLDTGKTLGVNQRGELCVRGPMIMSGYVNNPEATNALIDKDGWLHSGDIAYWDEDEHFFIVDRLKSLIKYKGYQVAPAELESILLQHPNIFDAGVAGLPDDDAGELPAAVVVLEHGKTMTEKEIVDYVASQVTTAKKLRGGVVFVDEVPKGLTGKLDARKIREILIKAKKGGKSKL
Chain of Fluc-ApCPP complex (P08659 whole entry, one chain of several): as the sequence (P08659 whole entry) above

Compound	appKm (Pmluc-WT [2])	Relative kcat (Pmluc-WT [2])	appKm (Eluc [3])	Relative kcat (Eluc [3])	Bioluminescence wavelength (BLλ) (SLR [4])	Absorption (λmax) [7]	Bioluminescence wavelength (BLλ) (Pmluc-WT [8])	Bioluminescence wavelength (BLλ) (Eluc [9])	appKm (SLR [10])	Relative kcat (SLR [10])	Bioluminescence wavelength (BLλ) (Pmluc-N230S [11])	Bioluminescence wavelength (BLλ) (Fluc [12])	appKm (Fluc [13])	Relative kcat (Fluc [13])	appKm (Pmluc-N230S [14])	Relative kcat (Pmluc-N230S [14])	Fluorescence (λem) [7]	also measured
CN(C)c1ccc(/C=C/C=C/C2=N[C@@H](C(=O)O)CS2)cc1.Cl [AkaLumine–HCl]	–	–	–	–	–	–	–	–	–	–	–	–	–	–	–	–	–	Quantum yield (Fluc [1]): 4.0 ± 0.5%
COc1cc2nc(C3=N[C@@H](C(=O)O)CS3)sc2c(OC)c1O [Compound 2d, 5′,7′-dimethoxy-D-luciferin]	0.2 µM	~ 0.02	34.7 µM	0.1	> 630 nm	412 nm	582 nm	596 nm	5.0 µM	0.8	646 nm	625 nm	0.2 µM	1.3	13.3 µM	0.2	–	Substrate inhibition (Pmluc-WT [2]; [15]): > 0.8 µM; Bioluminescence wavelength (BLλ) (SLR [4]; listed as 5′,7′-dimethoxy-D-LH2): 663 nm; N site (Fluc [5]): 0.42; G (free energy of binding) (Fluc [5]; 25 °C): -25.9 kJ/mol; H (enthalpy of binding) (Fluc [5]; 25 °C): -21.9 kJ/mol; Kd (Fluc [5]; Table S9): 30.4 µM; Observed rate constant (kobs) Light decay Faster phase (Fluc [6]): 0.50 ± 0.00 s⁻¹; Observed rate constant (kobs) Light formation (Fluc [6]): 8.13 ± 0.08 s⁻¹; Substrate inhibition (SLR [10]; [15]): > 16.6 µM; Substrate inhibition (Fluc [13]; [15]): > 0.8 µM
Cc1cc(O)c(C)c2sc(C3=N[C@@H](C(=O)O)CS3)nc12 [Compound 2e, 4′,7′-dimethyl-D-LH2]	10.2 µM	1.2	19.1 µM	0.2	644 nm	330 nm	637 nm	583 nm	9.0 µM	5.5	631 nm	636 nm	7.1 µM	1.0	6.6 µM	6.3	560 nm and 523–560 nm	Kd (Fluc-ApCPP complex; 25 °C, preformed Fluc-ApCPP complex, read-out: Dissociation constant (Kd) Fluc-ApCPP: Luciferin): 864 ± 7 µM; N site (Fluc-ApCPP complex; Fluc-ApCCP): 0.90; G (free energy of binding) (Fluc-ApCPP complex; Fluc-ApCCP, 25 °C): -18.5 kJ/mol; H (enthalpy of binding) (Fluc-ApCPP complex; Fluc-ApCCP, 25 °C): -335 kJ/mol
Cc1c(O)c2ccccc2c2nc(C3=N[C@@H](C(=O)O)CS3)sc12 [Compound 2f, 7′-methylnaphthol-D-luciferin]	–	–	24.7 µM	0.0	634 nm	437 nm	–	557 nm	11.6 µM	1.1	–	648 nm and > 630 nm	2.7 µM	0.1	–	~ 0.01	580 nm	–
infraluciferin	–	–	–	–	–	–	–	–	–	–	–	–	–	–	–	–	–	Longest BL wavelength (luciferases): > 700 nm
